Data published in patent publication US20130295017A1, “METHODS FOR SCREENING ANTIBIOTIC COMPOUNDS” (priority 2010, published 2013).

Test system: S. aureus strain ALC6094
Assay: Murine model of subcutaneous infection (abscess), IPTG induction of MazFsa
Type: in vivo, Balb/C female mice
Settings: for Log10 CFU/abscess: sacrifice day 4, n = 9
Text: A murine model of subcutaneous infections (abscess) was used. Such models are well-established as methods to screen for in vivo activity to affect infection processes (Tamber et al. 2010. Infect. Immun. 78:3637-3646).
In the present experiments, a bacterial strain ALC6094, which is a derivative of S. aureus strain Newman was used. This strain contains a chromosomal copy of the T7 polymerase gene and the plasmid pG164::mazFsa, which is a shuttle plasmid with an IPTG-inducible T7 promoter driving MazFsa expression. Mice were challenged with 2×10^7 CFU of bacteria via subcutaneous (s.q.) injection and mixed with 1 mM IPTG immediately before injection. After injection, half of the IPTG-treated animals received two saline injections daily while the remaining half were injected with 1 mM IPTG (s.q.) daily for 2 days. All animals were sacrificed on day 4, including untreated control groups receiving no IPTG. […] Thus, drugs that disrupt the MazEF complex would be novel compounds for use in treating S. aureus bacterial infections.
Balb/C female mice (20-22 grams) were used to assess the utility of disrupting MazEFsa activity in vivo as a potential method for testing for drug efficacy. The mice were infected subcutaneously with 200 μl of 1.5×10^8 CFU/ml of bacteria. The bacterial strain used was ALC6094, which is a derivative of S. aureus strain Newman containing a chromosomal copy of the T7 polymerase gene and the plasmid pG164::mazFsa, which is a shuttle plasmid with an IPTG-inducible T7 promoter driving MazFsa expression. Control mice were infected with the bacteria but received no further injections. Two treatment groups were tested: 1) mice injected with ALC6094 that was mixed with IPTG immediately before injection (1 ml of a 5 mM solution of IPTG); and 2) mice injected with ALC6094 mixed with IPTG and then given daily IPTG injections for two subsequent days. Animal were sacrificed on day 4 after injection. Only mice receiving saline control developed visible abscesses by day 3, while those animals receiving IPTG had visible erythematous injection sites.

CC(C)S[C@@H]1O[C@H](CO)[C@H](O)[C@H](O)[C@H]1O [IPTG]
Log10 CFU/abscess (ALC6094 mixed with IPTG immediately before s.q. injection): 6.57 ± 0.83 Log10 CFU/abscess
Log10 CFU/abscess (ALC6094 mixed with IPTG plus daily IPTG injections for two subsequent days): 6.59 ± 0.95 Log10 CFU/abscess
abscess size vs. no IPTG controls (mice receiving IPTG induction for MazFsa): smaller abscess sizes
